Data on 16 molecules can be found in patent publication US20170074857A1, “MEDICATION ADHERENCE MONITORING DEVICE” (UNIVERSITY OF FLORIDA RESEARCH FOUNDATION, INC., priority 2014, published 2017).

Like-named read-outs stand apart in the source and are kept apart here.

For data set [1] the following is noted: cited from earlier work.
For data set [2] the following is noted: cited from earlier work. This is another data set of the same source.
Data set [3] is described as follows: Example 26: breath d6-acetone after 100 mg d8-isopropanol per diem for 5 days (LTQ-LCMS). The note with it: in vivo; for Half-life: human, 100 mg. The method, then: 100 mg aliquots (125 μL) of neat d8-isopropanol were ingested at 24 h intervals for a period of 5 days. Each aliquot was administered in a size 0 LiCap along with ˜200 mL of water.
Each breath sample consisted of a single full breath exhaled directly into the modified ESI source.
Following the ingestion of each aliquot, breath samples were taken every 2 min for the first 30 min following ingestion, every 5 min from 30-60 min after ingestion and every 10 min from 60-120 min. Additional breath samples were collected at ˜9 h and 20 h after ingestion. After the final dose, breath samples were taken once every 24 h for the next 3 days (total study time=8 days).

For data set [4] the following is noted: orally; FDA Q3C guidance; cited from earlier work.
The nature of data set [5]: clinical. The following applies: human, exhaled breath, oral, 100 mg.
Experiment in data set [6]: not given
This is another data set of the same source.

In data set [7] the test system is human carboxylesterases and tissue esterases. The note with it: metabolized by human carboxyesterases and tissue esterases; cited from earlier work.
The conditions of data set [8]: in vivo. The text has this: FIG. 79. […] The experimental data was curve fit (parameter estimates±SE) to Equation 1 using a non-linear, least squares (Marquardt-Levenburg) algorithm (SigmaPlot 11, Systat Software, Inc., San Jose, Calif.). […] Note: the logarithmic scale is used on the y axis.
These times are indicated by the short vertical lines on the time axis. […] The y axis is plotted on the log 10 scale.
As it relates to the SMART® Adherence System, the concentration rise (rapid absorption of AEM and conversion to EDIM) and decay of the EDIM with time in breath following oral administration of the AEM is well described by a 1 compartmental (monoexponential) pharmacokinetic (PK) model, reflecting absorption and elimination, which can be described by the following equation (dertived from Miller's Anesthesia, 6th Edition, p 81, 2005, Ed: Ronald D. Miller, Elsevier Churchill Livingstone, Philadelphia, Pa.):
In this example, an initial 1st AEM dose pharmacokinetic (PK) analysis over a period of 0 to a maximum of 24 hours is carried out. […] Note: To ensure an accurate EDIM t1/2a ideally the last time point measured in this 1st dose PK analysis includes the EDIM trough concentration (i.e., the concentration at the time point just prior to the 2nd dose). The AEM could either consist of ordinary or non-ordinary cold isotopes, which generate ordinary and non-ordinary cold isotopic labeled EDIMs. The EDIM levels in breath are measured using the appropriate SMART® device type as disclosed herein.

A short description of data set [9]: Example 4a: noncompartmental pharmacokinetics of exhaled 2-butanone and 2-pentanone by mGC. The data set is classed as in vivo, human. The note with it: human, in vivo. The text has this:
Test Materials. […] 2-butanol was purchased from Penta Manufacturing Company (Fairfield, N.J.). 2-pentanol and L-carvone were purchased from Sigma-Aldrich (St. Louis, Mo.). […] 2-pentanone was also used as a taggant, but we hypothesized that its inherent volatility would allow exhalation without need for metabolism. L-carvone tastes like spearmint and was used as a flavor mask. All capsules were filled on the day of the experiment.
Subject Enrollment and Protocol. This protocol (20100140) was approved by the Western Institutional Review Board (Olympia, Wash.). Healthy subjects (n=5) aged >18 years of age and of either sex were recruited. Informed, written consent was obtained from all enrolled subjects. The study consisted of a single experimental limb with six replicates per subject. Therefore, for five subjects with six replicated experiments, a total of 30 studies were performed. Subjects were free to eat ad lib prior to participation in the study. At commencement of the experiments, subjects provided a baseline breath sample (designated time 0 min) into the mGC for analysis as described subsequently. Then, subjects orally consumed the previously detailed capsule with 177 mL (6 ounces) of water. Following ingestion, we observed the breath concentration-time relationships of 2-butanone and 2-pentanone by collecting single-breath samples at times 5, 10, 15, 20, 30, 45, and 60 min. After 60 min, the experiment was concluded. After at least one day's respite, subjects returned for replicate experiments on five additional occasions.
2-Butanone and 2-Pentanone Measurement in Human Breath by mGC. Breath specimens were analyzed “real-time” to measure the concentrations of 2-butanone and 2-pentanone using the mGC (Xhale, Inc. Gainesville, Fla.) as previously described. In brief, a mouthpiece (FST®, Intoximeters, Inc., St. Louis, Mo.) was attached to the inlet of the mGC. A 15 mL side-stream sample was aspirated during a single exhalation over 5 s through this inlet port to a room temperature concentrator trap containing 4 mg of Tenax TA (Sigma-Aldrich). The trap temperature was then increased to 130° C. and the volatile components transferred to a 5 m by 0.53 mm internal diameter, metal clad, BAC-1 capillary column (Restek Corp, Bellefonte, Pa.) operated at 55° C. The effluent from the column then flowed to the metal oxide detectors. Separation of the markers from other volatile organic compounds present in the sample (i.e., acetone and isoprene) occurred in approximately 2 min. Data were tabulated and graphically presented over time to determine the concentrations of 2-butanone and 2-pentanone in a given breath specimen. Data are reported in parts-per-billion (ppb) based on molar fractions to account for differing ambient atmospheric pressures and temperature.
Pharmacokinetic Analysis. Analyte breath concentrations reported as ppb were converted to ng/mL by multiplying each concentration by the molecular weight of the respective molecule to allow proper functioning of conventional PK software for noncompartmental analysis (WinNonlin 5.2, Pharsight Corporation, St. Louis, Mo.). Estimates were generated for the following PK parameters (abbreviation, unit): first-order elimination rate constant (Lambda Z, min-1), half-life of elimination (Half-life, min), maximal drug concentration (CMAX, μg/mL), time at maximal drug concentration (TMAX, min), area under concentration versus time curve from zero to the last time point (AUC0-LAST, min*μg/mL), area under concentration versus time curve from zero to infinity (AUC0-∞, min*μg/mL), percentage of area under concentration versus time curve from zero to infinity, which is extrapolated from AUC0-t (% AUC Extrap) and the mean residence time (MRT, min). The area under concentration versus time curve (AUC) was calculated using the linear trapezoidal rule. All values are reported separately for each subject as mean±standard deviation following conversion from ng/mL to ppb. […]

The nature of data set [10]: Example 30: sodium alkyl carbonates, stability and breath ketones after ingestion (FIG. 83). The method, then:
Isopropanol (1000 mL) was taken lab reactor and added Na metal (6 g). The reaction mixture was heated to 80° C. for 3 h (sodium metal dissolved, clear solution was observed). The reaction mixture was cooled to 0 to 5° C. and purged CO2 (thick suspension was observed after 30 min). Aliquot were drawn after 30 min, concentrated and the solid obtained was analyzed by 1H NMR. The reaction mixture was allowed to stir for additional 30 min. The complete reaction mixture was rinsed with isopropanol (100 mL) and transferred to an R.B flask, concentrated under vacuum to get white solid. The solid obtained after concentration was dried under vacuum at 40° C. at 1 h to get 26 g of white solid.
Sodium isopropoxy carbonate is formed according to this method. The MAC from isopropanol seems to decompose at 60° C. MAC on treatment with water decomposes and white solid was isolated.
The solution was cooled to between 0 and 5° C. and purged with CO2 for 45 minutes. The resulting suspension was concentrated under high vacuum at 40-50° C. to obtain 15 g of white solid. ^1H-NMR: δ ppm (in D2O)=0.89 (triplet, 3H), 1.17 (doublet, 3H), 1.50 (multiplet, 2H), 4.38 (multiplet, 1H) ^13C-NMR: δ ppm (in D2O)=9.48, 19.59, 28.97, 73.96 and 159.61. IR: ν (cm^−1)=1651, 1458, 1369 and 1289 (indicative of an alkyl carboxylate).
Synthesis 2: Six grams of Na metal was dissolved in 100 mL of anhydrous isopropanol at 80° C. […]

For `CCCOC(C)=O` [propyl acetate], the “LD50 Oral Rat” value in data set [1] (in vivo, po) is recorded as 9370 mg/kg.

As to `CC(C)=O` [acetone], the “average elimination half life in humans” value in data set [2] (Jones, J Anal Toxicol 2000) was 22 h. The “metabolic/elimination half life in humans” value in [2] (Jones, J Anal Toxicol 2000) was 17 to 27 h. For the same molecule, the Half-life is about 6.4 h in [3] (elimination half life in breath, Example 26 / FIG. 74, after d8-IPA); about 6.5 h in [3] (half-life of acetone derived from IPA, exhaled breath); under 10 h in data set [5]. Besides, the “CMAX assuming dose proportionality” value (IPA 138 mg orally per day (PDE)) is reported as 4131 ppb. In data set [4], the “permissible daily exposure (PDE)” value is recorded as 210 mg/day. In data set [6] (100 mg IPA daily), the “time for trough concentrations to reach steady state” value lay within 1 to 2 days. For the same molecule, in data set [6] (100 mg IPA for 5 successive days, Type 1 (mGC) device), the breath concentration was 2700 to 3000 ppb. The molecule also yielded a maximum breath concentration in [6] (100 mg IPA oral) of 2800 ppb. Moreover, the “rise of breath concentration over baseline” value in data set [6] (100 mg IPA oral, 15 and 30 min) is “greater than 6 ×”.

Turning to `CCCC(C)O` (centres unmarked) [Formulation 2-pentanol, 2-pentanol], the “LD50 Oral Rat” value in [1] (oral) is reported as 1470 mg/kg.

As to `CCOC(=O)c1ccc(O)cc1` [Ethyl paraben], in data set [7], the “Breath Metabolites” value was “Ethanol + POHBA”.

On to `COC(=O)C(C)C` [methylisobutyrate], for which the “LD50 Oral Rat” value in data set [1] (oral) was 5000 mg/kg.

`C[S+](C)[O-]` [DMSO, dimethyl sulfoxide]: the elimination half life in [2] (humans) is 12 to 15 h. Also, in data set [4], the “permissible daily exposure (PDE)” value is on record as 50 mg/day.

On to `[2H]C([2H])([2H])C(=O)C([2H])([2H])[2H]` [d6-acetone], for which, in [3], the Average k entry is given as “Average k = −0.1079”, the “elimination half life in breath” value was 6.4 h, the “exhaled breath peak height” value is on record as 62000 peak height and the “time after a dose up to which deviations from steady state are detectable” value was “up to 65 hours”. The t½ result in data set [3] is reported as “t½ ≃ 6.4 h”. Also, in data set [3] (24 h), the “maximum peak response remaining after 24 h” value is on record as 6-10%. Further, in data set [8] (human), the TMAX was 1.46 h and the “steady state CMAX” value was 1819 ppb. In addition, in data set [8] (human, 100 mg), the “CMAX, 1st dose” value is 1561 ppb. For the same molecule, in data set [8], the FLost worked out at 0.859, the “accumulation factor (AF)” value is given as 1.165 and the “steady state CTrough” value came out at 267 ppb. The TMAX (100 mg d8-IPA) came out at 3 h. In addition, the “maximum breath concentration (CMAX)” value (100 mg d8-IPA, assuming breath acetone of 582 ppb) was 2,993 ppb.

As for `CCC(=O)OC` [methyl propionate], in [1] (oral), the “LD50 Oral Rat” value is 5000 mg/kg.

For `CCCCCCOC(C)=O` [hexyl acetate], the “LD50 Oral Rat” value in data set [1] (oral) was 30147 mg/kg.

For orientation: MRT last means a mean duration of stay, worked out from the concentration-time curve. For the molecule `CCCC(C)=O` [Formulation 2-pentanone, 2-pentanone], in data set [9] (both sexes, Half-life), the Half-life worked out at 0.395 h. In addition, the MRT last in [9] (both sexes, MRT0-Last) is 0.42 h. Also, the mean residence time (MRT last) in data set [9] (both sexes, MRT0-last) was 0.423 h. In [9] (both sexes, TMAX), this molecule gave a TMAX of 0.247 h. For the same molecule, in [9] (both), the “TThresh range between replicates” value was in the range of 5 to 7 min. In addition, in [9], the AUC0-8 is 58214 min · ppb and the “observed CMAX range” value was 536-2,072 ppb.

Consider `COC(=O)c1ccc(O)cc1` [Methyl paraben], for which the “Breath Metabolites” value in [7] is reported as “Methanol + para- hydroxybenzoic acid (POHBA)”.

As for `CC(=O)OCCC(C)C` [isoaryl (isopentyl) acetate], the “LD50 Oral Rat” value in [1] (oral) is 16600 mg/kg.

`CCCCOC(=O)c1ccc(O)cc1` [Butyl paraben]: the “Breath Metabolites” value in data set [7] is recorded as “Butanol + POHBA”.

Consider `CCOC(=O)C(C)C` [ethyl isobutyrate], for which the “LD50 Oral Rat” value in data set [1] (oral) is on record as 13000 mg/kg.

In the case of `CC(C)OC(=O)O` [MAC from isopropanol, Sodium Isopropyl Carbonate], in data set [10], the “temperature at which it seems to decompose” value came out at 60 °C.

Regarding `[2H]OC([2H])(C([2H])([2H])[2H])C([2H])([2H])[2H]` [d8-IPA, d8-isopropanol], where the note is “single 100 mg dose”, the OrbiTrap peak height is listed as 360,000 peak height and the “OrbiTrap response relative to background endogenous breath acetone” value is on record as “approximately 5.14 ×”.
